Values after ≈ are worked out from the molar mass of the structure shown. Values joined by “and” are separate entries in the source; they are usually repeats but may differ in a detail not shown here. Equal values may be shown once. Read-outs that look alike come from different tables or passages of the source. Square brackets hold non-standard residues; d marks the D form. Peptide text beside a SMILES is read from it. * marks the point of attachment. dPhe(4-Cl) = N[C@H](Cc1ccc(Cl)cc1)C(=O)O; d2Nal = N[C@H](Cc1ccc2ccccc2c1)C(=O)O; Lys(iPr) = CC(C)NCCCC[C@H](N)C(=O)O; d3Pal = N[C@H](Cc1cccnc1)C(=O)O; Nicotinoyl = O=C(c1cccnc1)*
Assays:
[1] = Stability of nicotinamide/antide formulations (chemical compatibility); assay type: physicochemical; conditions: pH 5
Method: (§1) RP-HPLC gradient elution, C-18 (e.g. Vydac 218 TP54, 250 x 4.6 mm) column. UV detection at 215 nm, injection volume 15 µl mobile phase A: pH 4.5 phosphate buffer (0.1M), mobile phase B: acetonitrile, flow rate = 1.0 ml/min, runtime = 23 min. External standard solution concentrations of 100 µg/ml were injected during analysis. The gradient was: 77% A, 23% B to 52% A, 48% B […].
Four formulations of antide and nicotinamide at different concentration ratios and adjusted to pH 5 were prepared and tested over 3 months at +40°C, +25°C and +4°C.
Chromatographic traces of antide were identical to those of the standard, with the addition of the early eluting nicotinamide peak which appeared at a retention tune of 3.2 minutes.

[2] = Solubilisation studies (visual appearance and RP-HPLC solubility after equilibration overnight at 25°C); assay type: physicochemical
Method: as §1
Solubilisation studies were carried out to study the effect of: • pH (solutions were acidified with either acetic acid or hydrochloric acid) • hydrotropic agents (nicotinamide, sodium saccharin, sodium salicylate, sodium benzoate, histidine hydrochloride, thiamine hydrochloride, phenylalanine).
Saline used in these studies corresponds to 0.9% sodium chloride solution.
Following the visual analysis, a number of solutions were selected for further quantitative determination of the solubility by filtration (0.45 µm filters) and appropriate dilution using the RP-HPLC method described above.

CC(=O)N[C@H](Cc1ccc2ccccc2c1)C(=O)N[C@H](Cc1ccc(Cl)cc1)C(=O)N[C@H](Cc1cccnc1)C(=O)N[C@@H](CO)C(=O)N[C@@H](CCCCNC(=O)c1cccnc1)C(=O)N[C@H](CCCCNC(=O)c1cccnc1)C(=O)N[C@@H](CC(C)C)C(=O)N[C@@H](CCCCNC(C)C)C(=O)N1CCC[C@H]1C(=O)N[C@H](C)C(N)=O [antide] (Ac-[d2Nal][dPhe(4-Cl)][d3Pal]SK(Nicotinoyl)[dK](Nicotinoyl)L[Lys(iPr)]P[dA]-NH2)
Stability of nicotinamide/antide formulations ([1]; antide 1 mg/ml, nicotinamide 5%, +4°C, 4W): 0.9
Stability of nicotinamide/antide formulations ([1]; antide 1 mg/ml, nicotinamide 5%, +4°C, 12W): 1.0
Stability of nicotinamide/antide formulations ([1]; antide 1 mg/ml, nicotinamide 5%, +25°C, 1W): 0.9
Stability of nicotinamide/antide formulations ([1]; antide 1 mg/ml, nicotinamide 5%, +25°C, 4W): 0.9
Stability of nicotinamide/antide formulations ([1]; antide 1 mg/ml, nicotinamide 5%, +25°C, 12W): 1.0
Stability of nicotinamide/antide formulations ([1]; antide 1 mg/ml, nicotinamide 5%, +40°C, 1W): 1.0
Stability of nicotinamide/antide formulations ([1]; antide 1 mg/ml, nicotinamide 5%, +40°C, 4W): 0.9
Stability of nicotinamide/antide formulations ([1]; antide 1 mg/ml, nicotinamide 5%, +40°C, 12W): 1.0
Stability of nicotinamide/antide formulations ([1]; antide 1 mg/ml, nicotinamide 5%, T=0): 1.0
Stability of nicotinamide/antide formulations ([1]; antide 1 mg/ml, nicotinamide 25%, +4°C, 4W): 1.0
Stability of nicotinamide/antide formulations ([1]; antide 1 mg/ml, nicotinamide 25%, +4°C, 12W): 1.1
Stability of nicotinamide/antide formulations ([1]; antide 1 mg/ml, nicotinamide 25%, +25°C, 1W): 1.0
Stability of nicotinamide/antide formulations ([1]; antide 1 mg/ml, nicotinamide 25%, +25°C, 4W): 1.0
Stability of nicotinamide/antide formulations ([1]; antide 1 mg/ml, nicotinamide 25%, +25°C, 12W): 1.1
Stability of nicotinamide/antide formulations ([1]; antide 1 mg/ml, nicotinamide 25%, +40°C, 1W): 1.0
Stability of nicotinamide/antide formulations ([1]; antide 1 mg/ml, nicotinamide 25%, +40°C, 4W): 1.0
Stability of nicotinamide/antide formulations ([1]; antide 1 mg/ml, nicotinamide 25%, +40°C, 12W): 1.1
Stability of nicotinamide/antide formulations ([1]; antide 1 mg/ml, nicotinamide 25%, T=0): 1.0
Stability of nicotinamide/antide formulations ([1]; antide 10 mg/ml, nicotinamide 5%, +4°C, 1W): 10.3
Stability of nicotinamide/antide formulations ([1]; antide 10 mg/ml, nicotinamide 5%, +4°C, 4W): 10.0
Stability of nicotinamide/antide formulations ([1]; antide 10 mg/ml, nicotinamide 5%, +4°C, 12W): 10.5
Stability of nicotinamide/antide formulations ([1]; antide 10 mg/ml, nicotinamide 5%, +25°C, 1W): increased viscosity with precipitate formation and gel
Stability of nicotinamide/antide formulations ([1]; antide 10 mg/ml, nicotinamide 5%, +25°C, 4W): gel
Stability of nicotinamide/antide formulations ([1]; antide 10 mg/ml, nicotinamide 5%, +25°C, 12W): gel
Stability of nicotinamide/antide formulations ([1]; antide 10 mg/ml, nicotinamide 5%, +40°C, 1W): increased viscosity with precipitate formation and gel
Stability of nicotinamide/antide formulations ([1]; antide 10 mg/ml, nicotinamide 5%, +40°C, 4W): gel
Stability of nicotinamide/antide formulations ([1]; antide 10 mg/ml, nicotinamide 5%, +40°C, 12W): gel
Stability of nicotinamide/antide formulations ([1]; antide 10 mg/ml, nicotinamide 5%, T=0): 9.7
Stability of nicotinamide/antide formulations ([1]; antide 10 mg/ml, nicotinamide 25%, +4°C, 4W): 10.1
Stability of nicotinamide/antide formulations ([1]; antide 10 mg/ml, nicotinamide 25%, +25°C, 1W): 9.8
Stability of nicotinamide/antide formulations ([1]; antide 10 mg/ml, nicotinamide 25%, +25°C, 4W): 9.5
Stability of nicotinamide/antide formulations ([1]; antide 10 mg/ml, nicotinamide 25%, +25°C, 12W): 11.1
Stability of nicotinamide/antide formulations ([1]; antide 10 mg/ml, nicotinamide 25%, +40°C, 1W): 10.7
Stability of nicotinamide/antide formulations ([1]; antide 10 mg/ml, nicotinamide 25%, +40°C, 4W): 9.4
Stability of nicotinamide/antide formulations ([1]; antide 10 mg/ml, nicotinamide 25%, +40°C, 12W): 10.2
Stability of nicotinamide/antide formulations ([1]; antide 10 mg/ml, nicotinamide 25%, T=0): 9.8
solubility thermodynamic ([2]; 0.9% NaCl solution (saline), saline or isotonic, 0.9% NaCl solution): 25 µg/mL (≈ 15.7 µM)
Solubility ([2]; 1% acetic acid in saline, 5 mg/ml antide added, pH 3.12, not quantified, read-out: drug solubility): < 5000 µg/mL
solubility thermodynamic ([2]; WFI (water for injection), pH 4.4, water, WFI, nominal amount added 10 mg/ml, pH 4.40): 8130 µg/mL (≈ 5110 µM)
Solubility ([2]; WFI (water for injection), water, WFI, nominal amount added 1 mg/ml, pH 5.00, read-out: Solubility): ≥ 1000 µg/mL
Solubility ([2]; WFI, nominal amount added 10 mg/ml, pH 4.40): 8100 µg/mL (≈ 5090 µM)
solubility thermodynamic ([2]; phosphate buffered saline, aqueous buffer): 16 µg/mL (≈ 10.1 µM)
Solubility ([2]; saline + 15% nicotinamide, nominal amount added 5 mg/ml, pH 5.79 (Table 9)): 3300 µg/mL and 3320 µg/mL
Solubility ([2]; saline + 15% sodium benzoate, nominal amount added 5 mg/ml, pH 6.69): 72 µg/mL
Solubility ([2]; saline + 15% sodium salicylate, nominal amount added 5 mg/ml, pH 5.81): 210 µg/mL
Solubility ([2]; saline + 15% thiamine hydrochloride, nominal amount added 5 mg/ml, pH 3.30): 3000 µg/mL and 3010 µg/mL
Solubility ([2]; saline + histidine hydrochloride (5%), nominal amount added 5 mg/ml, pH 4.17): 76 µg/mL
Solubility ([2]; saline + nicotinamide 10%, nominal amount added 5 mg/ml, pH 5.68): 1400 µg/mL
Solubility ([2]; saline + nicotinamide 15%, nominal amount added 5 mg/ml, pH 5.76 (Table 10)): 3230 µg/mL
Solubility ([2]; saline + nicotinamide 20%, nominal amount added 10 mg/ml, pH 5.64): 8500 µg/mL and 8490 µg/mL
Solubility ([2]; saline + phenylalanine (1.7%), nominal amount added 5 mg/ml, pH 4.59): 66 µg/mL
solubility thermodynamic ([2]; saline acidified with acetic acid, pH 3.01, saline or isotonic, nominal amount added 10 mg/ml, pH 3.01): 2200 µg/mL (≈ 1380 µM)
Solubility ([2]; saline acidified with acetic acid, nominal amount added 10 mg/ml, pH 3.01): 2230 µg/mL (≈ 1400 µM)
solubility thermodynamic ([2]; saline, pH 5.04, saline or isotonic, nominal amount added 1 mg/ml, natural pH 5.04): 25 µg/mL (≈ 15.7 µM)

Source: patent publication EP0880968A1, “Pharmaceutical compositions of peptides having low solubility in physiological medium” (Applied Research Systems ARS Holding N.V., priority 1997, dated 1998)
